Assay results: PubChem BioAssay AID2060512 (Molecular Pharmacology Branch, DTP, NCI, 2025)
One block for each compound: values may come before it.

Tested on: 186277-243-T-J2-PDC complex spheroid viability
Experiment: Anticancer human tumor 186277-243-T-J2-PDC patient-derived colon adenocarcinoma cell line growth inhibition [GQUAD]
Conditions: for IC50: curve of first compound; for viability, T/C: stronger effect = lower value
In short: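 Viability of tumor cells grown as complex spheroids with endothelial and stromal cells, exposed to drug combinations. Top concentration at or near clinical Cmax (else 10 microM), diluted in half-log increments.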

[1] = second compound 0.0316 µM, first compound 0.0316 µM
[2] = second compound 0.0316 µM, first compound 0.1 µM
[3] = second compound 0.0316 µM, first compound 0.316 µM
[4] = second compound 0.0316 µM, first compound 1 µM
[5] = second compound 0.0316 µM, first compound 3.16 µM
[6] = second compound 0.0316 µM, first compound 10 µM
[7] = second compound 0.1 µM, first compound 0.0316 µM
[8] = second compound 0.1 µM, first compound 0.1 µM
[9] = second compound 0.1 µM, first compound 0.316 µM
[10] = second compound 0.1 µM, first compound 1 µM
[11] = second compound 0.1 µM, first compound 3.16 µM
[12] = second compound 0.1 µM, first compound 10 µM
[13] = second compound 0.316 µM, first compound 0.0316 µM
[14] = second compound 0.316 µM, first compound 0.1 µM
[15] = second compound 0.316 µM, first compound 0.316 µM
[16] = second compound 0.316 µM, first compound 1 µM
[17] = second compound 0.316 µM, first compound 3.16 µM
[18] = second compound 0.316 µM, first compound 10 µM
[19] = second compound 1 µM, first compound 0.0316 µM
[20] = second compound 1 µM, first compound 0.1 µM
[21] = second compound 1 µM, first compound 0.316 µM
[22] = second compound 1 µM, first compound 1 µM
[23] = second compound 1 µM, first compound 3.16 µM
[24] = second compound 1 µM, first compound 10 µM
[25] = second compound 3.16 µM, first compound 0.0316 µM
[26] = second compound 3.16 µM, first compound 0.1 µM
[27] = second compound 3.16 µM, first compound 0.316 µM
[28] = second compound 3.16 µM, first compound 1 µM
[29] = second compound 3.16 µM, first compound 3.16 µM
[30] = second compound 3.16 µM, first compound 10 µM
[31] = second compound 10 µM, first compound 0.0316 µM
[32] = second compound 10 µM, first compound 0.1 µM
[33] = second compound 10 µM, first compound 0.316 µM
[34] = second compound 10 µM, first compound 1 µM
[35] = second compound 10 µM, first compound 3.16 µM
[36] = second compound 10 µM, first compound 10 µM
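Throughout, for viability, T/C: 100% = DMSO vehicle control viability.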

- IC50 (second compound 0.0316 µM): 985 nM
- IC50 (second compound 0.1 µM): 1080 nM
- IC50 (second compound 0.316 µM): 1630 nM
- IC50 (second compound 1 µM): < 31.6 nM
- IC50 (second compound 3.16 µM): 169 nM
- IC50 (second compound 10 µM): < 31.6 nM
Compound: COc1cc(C2c3cc4c(cc3C(OC3OC5COC(C)OC5C(O)C3O)C3COC(=O)C23)OCO4)cc(OC)c1O (stereo not drawn) + Cc1cnc(CNC(=O)c2c(=O)c3ccc(N4CCCN(C)CC4)nc3n3c2sc2ccccc23)cn1
- viability, T/C [1]: 105%
- viability, T/C [2]: 93.9%
- viability, T/C [3]: 78.2%
- viability, T/C [4]: 45.1%
- viability, T/C [5]: 33.3%
- viability, T/C [6]: 15.8%
- viability, T/C [7]: 70.8%
- viability, T/C [8]: 82.5%
- viability, T/C [9]: 69.3%
- viability, T/C [10]: 46.5%
- viability, T/C [11]: 37.3%
- viability, T/C [12]: 20%
- viability, T/C [13]: 80.8%
- viability, T/C [14]: 69.8%
- viability, T/C [15]: 55.9%
- viability, T/C [16]: 53.7%
- viability, T/C [17]: 53.3%
- viability, T/C [18]: 20.3%
- viability, T/C [19]: 43.6%
- viability, T/C [20]: 50.8%
- viability, T/C [21]: 57.5%
- viability, T/C [22]: 44.9%
- viability, T/C [23]: 42.3%
- viability, T/C [24]: 20%
- viability, T/C [25]: 50.9%
- viability, T/C [26]: 51%
- viability, T/C [27]: 51.4%
- viability, T/C [28]: 38.8%
- viability, T/C [29]: 30.7%
- viability, T/C [30]: 19.6%
- viability, T/C [31]: 42.7%
- viability, T/C [32]: 35%
- viability, T/C [33]: 45%
- viability, T/C [34]: 47%
- viability, T/C [35]: 33.7%
- viability, T/C [36]: 17.7%

- IC50 (second compound 0.0316 µM): 433 nM
- IC50 (second compound 0.1 µM): 634 nM
- IC50 (second compound 0.316 µM): 350 nM
- IC50 (second compound 1 µM): < 31.6 nM
- IC50 (second compound 3.16 µM): < 31.6 nM
- IC50 (second compound 10 µM): < 31.6 nM
Compound: COc1cccc2c1C(=O)c1c(O)c3c(c(O)c1C2=O)CC(O)(C(=O)CO)CC3OC1CC(N)C(O)C(C)O1 (stereo not drawn) + Cc1cnc(CNC(=O)c2c(=O)c3ccc(N4CCCN(C)CC4)nc3n3c2sc2ccccc23)cn1
- viability, T/C [1]: 113%
- viability, T/C [2]: 84.8%
- viability, T/C [3]: 65.2%
- viability, T/C [4]: 24.3%
- viability, T/C [5]: 1.89%
- viability, T/C [6]: 0.15%
- viability, T/C [7]: 86.5%
- viability, T/C [8]: 78.3%
- viability, T/C [9]: 77%
- viability, T/C [10]: 32.6%
- viability, T/C [11]: 1.48%
- viability, T/C [12]: 0.63%
- viability, T/C [13]: 59.4%
- viability, T/C [14]: 56.3%
- viability, T/C [15]: 52.3%
- viability, T/C [16]: 23.8%
- viability, T/C [17]: 0.99%
- viability, T/C [18]: 0.15%
- viability, T/C [19]: 45.9%
- viability, T/C [20]: 37.5%
- viability, T/C [21]: 46.5%
- viability, T/C [22]: 19.9%
- viability, T/C [23]: 0.12%
- viability, T/C [24]: 1.33%
- viability, T/C [25]: 43.5%
- viability, T/C [26]: 54.4%
- viability, T/C [27]: 31.4%
- viability, T/C [28]: 13.3%
- viability, T/C [29]: 2.48%
- viability, T/C [30]: 0.22%
- viability, T/C [31]: 39.9%
- viability, T/C [32]: 41.3%
- viability, T/C [33]: 41.8%
- viability, T/C [34]: 15.9%
- viability, T/C [35]: 0.24%
- viability, T/C [36]: 0.26%

- IC50 (second compound 0.0316 µM): < 31.6 nM
- IC50 (second compound 0.1 µM): < 31.6 nM
- IC50 (second compound 0.316 µM): < 31.6 nM
- IC50 (second compound 1 µM): < 31.6 nM
- IC50 (second compound 3.16 µM): < 31.6 nM
- IC50 (second compound 10 µM): < 31.6 nM
Compound: Nc1ccn(C2OC(CO)C(O)C2(F)F)c(=O)n1 (stereo not drawn) + Cc1cnc(CNC(=O)c2c(=O)c3ccc(N4CCCN(C)CC4)nc3n3c2sc2ccccc23)cn1
- viability, T/C [1]: 21.2%
- viability, T/C [2]: 13.3%
- viability, T/C [3]: 12.3%
- viability, T/C [4]: 11.9%
- viability, T/C [5]: 12.2%
- viability, T/C [6]: 12.8%
- viability, T/C [7]: 27.1%
- viability, T/C [8]: 17.6%
- viability, T/C [9]: 15.3%
- viability, T/C [10]: 12.9%
- viability, T/C [11]: 15.4%
- viability, T/C [12]: 15.9%
- viability, T/C [13]: 36%
- viability, T/C [14]: 28.4%
- viability, T/C [15]: 21.5%
- viability, T/C [16]: 16.8%
- viability, T/C [17]: 18.6%
- viability, T/C [18]: 16%
- viability, T/C [19]: 32.6%
- viability, T/C [20]: 30.2%
- viability, T/C [21]: 22.8%
- viability, T/C [22]: 21.4%
- viability, T/C [23]: 19.9%
- viability, T/C [24]: 17.7%
- viability, T/C [25]: 33.1%
- viability, T/C [26]: 24.8%
- viability, T/C [27]: 22.6%
- viability, T/C [28]: 19.5%
- viability, T/C [29]: 19.3%
- viability, T/C [30]: 16.5%
- viability, T/C [31]: 34.3%
- viability, T/C [32]: 25.1%
- viability, T/C [33]: 25.4%
- viability, T/C [34]: 18.7%
- viability, T/C [35]: 21.4%
- viability, T/C [36]: 19.2%

- IC50 (second compound 0.0316 µM): > 10000 nM
- IC50 (second compound 0.1 µM): > 10000 nM
- IC50 (second compound 0.316 µM): > 10000 nM
- IC50 (second compound 1 µM): < 31.6 nM
- IC50 (second compound 3.16 µM): < 31.6 nM
- IC50 (second compound 10 µM): < 31.6 nM
Compound: O=c1[nH]cc(F)c(=O)[nH]1 + Cc1cnc(CNC(=O)c2c(=O)c3ccc(N4CCCN(C)CC4)nc3n3c2sc2ccccc23)cn1
- viability, T/C [1]: 106%
- viability, T/C [2]: 110%
- viability, T/C [3]: 109%
- viability, T/C [4]: 98.5%
- viability, T/C [5]: 82.9%
- viability, T/C [6]: 57%
- viability, T/C [7]: 86.4%
- viability, T/C [8]: 93.7%
- viability, T/C [9]: 99.9%
- viability, T/C [10]: 79%
- viability, T/C [11]: 93.3%
- viability, T/C [12]: 66.3%
- viability, T/C [13]: 76.8%
- viability, T/C [14]: 73.3%
- viability, T/C [15]: 84.7%
- viability, T/C [16]: 57.7%
- viability, T/C [17]: 75.1%
- viability, T/C [18]: 55.1%
- viability, T/C [19]: 47.9%
- viability, T/C [20]: 56.3%
- viability, T/C [21]: 50.7%
- viability, T/C [22]: 56.6%
- viability, T/C [23]: 64.3%
- viability, T/C [24]: 56.3%
- viability, T/C [25]: 49.4%
- viability, T/C [26]: 44.8%
- viability, T/C [27]: 51.5%
- viability, T/C [28]: 50.7%
- viability, T/C [29]: 61.7%
- viability, T/C [30]: 43.7%
- viability, T/C [31]: 40.5%
- viability, T/C [32]: 41.7%
- viability, T/C [33]: 39.2%
- viability, T/C [34]: 53.3%
- viability, T/C [35]: 48.7%
- viability, T/C [36]: 45.9%
